Measured values taken from patent publication US10221163B2 (priority 2015, dated 2019).
Read-outs that look alike come from different tables or passages of the source.

How the values were obtained:
VIM-1 = VIM-1 (Pseudomonas aeruginosa (strain ATCC 15692 / DSM 22644 / CIP 104116 / JCM 14847 / LMG 12228 / 1C / PRS 101 / PAO1), UniProt A0A0F7KYQ8); assay: biochemical; settings: CCF2-FA substrate, 30 pM enzyme, 2 hours at 25° C.
Summary of the method: (§1)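 Semi-log dose-response curves, fitted with a 4-parameter model, gave IC50s. The underlying signal was CCF2-FA fluorescence following 2 hours at 25° C with enzyme, substrate and inhibitor combined.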

IMP-1 = IMP-1 (Serratia marcescens, UniProt P52699); assay: biochemical; assay type: biochemical; settings: fluorescence assay, CCF2-FA substrate, 2 pM enzyme, 2 hours at 25° C.; read-out: IMP-1 IC50
IMP-1, sequence (P52699 whole entry, looked up, species assumed): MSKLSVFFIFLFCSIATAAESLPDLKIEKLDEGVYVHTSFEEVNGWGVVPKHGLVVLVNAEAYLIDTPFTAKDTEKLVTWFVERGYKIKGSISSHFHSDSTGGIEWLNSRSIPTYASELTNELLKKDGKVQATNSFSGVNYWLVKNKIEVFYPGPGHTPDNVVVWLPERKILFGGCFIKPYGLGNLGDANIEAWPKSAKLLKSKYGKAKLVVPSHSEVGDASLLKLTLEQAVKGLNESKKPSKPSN
Summary of the method: as §1

NDM-1 = NDM-1 (Klebsiella pneumoniae, UniProt C7C422); assay: biochemical; assay type: biochemical; settings: fluorescence assay, CCF2-FA substrate, 1 pM enzyme, 2 hours at 25° C.; read-out: NDM-1 IC50
NDM-1, sequence (C7C422 whole entry, looked up, species assumed): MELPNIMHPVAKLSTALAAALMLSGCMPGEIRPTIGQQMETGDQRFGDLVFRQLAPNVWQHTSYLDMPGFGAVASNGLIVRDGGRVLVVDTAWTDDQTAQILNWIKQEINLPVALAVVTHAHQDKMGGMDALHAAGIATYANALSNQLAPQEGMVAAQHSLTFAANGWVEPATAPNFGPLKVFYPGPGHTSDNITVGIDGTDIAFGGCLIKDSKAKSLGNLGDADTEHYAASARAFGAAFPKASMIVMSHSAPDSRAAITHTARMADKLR
Summary of the method: as §1

[1] = test system: Pseudomonas aeruginosa MB9798 vs MB9799; settings: fold difference between efflux+ (MB9798) and efflux− (MB9799) strains; imipenem at 2 μg/mL
Summary of the method: (§2)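 PAO1 pair, broth microdilution; fixed β-lactam (imipenem/ceftazidime) at ~CLSI breakpoint + fixed class A/C BLI for AmpC; serial MBLi titration; endpoint = MBLi conc. restoring susceptibility; MB9798:MB9799 ratio = efflux liability.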

[2] = test system: Pseudomonas aeruginosa efflux+ (MB9798), IMP-1; assay type: cell-based; set-up: Concentration of metallo-β-lactamase inhibitor which restores susceptibility of efflux + (MB9798) strain to imipenem: unit not given here; settings: efflux+ MB9798; imipenem at 2 μg/mL; in the presence of a class A, C, D serine β-lactamase inhibitor closely related to relebactam
Summary of the method: as §2

[3] = test system: Pseudomonas aeruginosa efflux− (MB9799), IMP-1; assay type: cell-based; settings: efflux− MB9799; imipenem at 2 μg/mL; in the presence of a class A, C, D serine β-lactamase inhibitor closely related to relebactam
Summary of the method: as §2

[4] = test system: Klebsiella pneumoniae expressing VIM-1 (IHMA599644); assay type: cell-based; settings: VIM-1 strain IHMA599644, with imipenem 1 μg/ml, 95% inhibition of growth
Summary of the method: (§3)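 Growth by absorbance after 22–24 h at 35°C defined the read-out, with imipenem fixed at 1 μg/ml alongside compound. Inocula came from overnight blood-agar colonies at 35°C, resuspended in saline and diluted 1:100 in 1.1×CAMHB.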

[5] = test system: Escherichia coli expressing NDM-1 (CLB30005, CLB30016); assay type: cell-based; settings: NDM-1 strain, with imipenem 1 μg/ml, 95% inhibition of growth
Summary of the method: as §3

[6] = test system: Serratia marcescens expressing IMP-1 (CL5741); assay type: cell-based; settings: IMP-1 strain CL5741, with imipenem 1 μg/ml, 95% inhibition of growth
Summary of the method: as §3

[7] = fluorescence assay, read-out: VIM-1 IC50

SMILES	IC50 (VIM-1; [7]) [pM]	IC50 (IMP-1) [pM]	IC50 (NDM-1) [pM]	Efflux ratio [1]	Concentration of metallo-β-lactamase inhibitor which restores susceptibility of efflux + (MB9798) strain to imipenem [2]	Concentration of metallo-β-lactamase inhibitor which restores susceptibility of efflux − (MB9799) strain to imipenem [3]	Klebsiella pneumoniae MITC95 [4] [µM]	Escherichia coli MITC95 [5] [µM]	Serratia marcescens MITC95 [6] [µM]	IC50 (VIM-1; VIM-1 IC50, fluorescence assay) [pM]
C[C@@H](CN)NS(=O)(=O)c1ccc(-c2ccnc(N)c2)c(-c2nn[nH]n2)c1S(N)(=O)=O [Example 398]	939	7450	2540	4.00	6.25	1.563	3.125	3.125	1.563	–
NCCNS(=O)(=O)c1ccc(-c2ccnc(N)c2)c(-c2nn[nH]n2)c1S(N)(=O)=O [Example 400]	244	1420	598	2.00	1.563	0.7813	1.563	0.1953	0.3906	–
NCCNS(=O)(=O)c1ccc(-c2ccc3nccn3c2)c(-c2nn[nH]n2)c1S(N)(=O)=O [Example 401]	89.7	483	197	2.00	1.563	0.7813	1.563	0.7813	0.3906	–
NCCCNS(=O)(=O)c1ccc(-c2cc(F)cc3[nH]c(N)nc23)c(-c2nn[nH]n2)c1S(N)(=O)=O [Example 402]	159	318	52.4	1.00	0.7813	0.7813	1.563	0.3906	0.7813	–
NCC(CN)NS(=O)(=O)c1ccc(-c2cccc3[nH]nnc23)c(-c2nn[nH]n2)c1S(N)(=O)=O [Example 403]	–	531	63.3	1.00	1.563	1.563	3.125	1.563	1.563	175
NCC(CN)NS(=O)(=O)c1ccc(-c2ccc(N)nc2)c(-c2nn[nH]n2)c1S(N)(=O)=O [Example 404]	297	354	232	1.20	1.172	0.9766	1.172	0.293	0.5859	–
NCC(CN)NS(=O)(=O)c1ccc(-c2ccnc(N)c2)c(-c2nn[nH]n2)c1S(N)(=O)=O [Example 405]	5940	17900	7690	2.00	25	12.5	25	3.125	6.25	–
NCC(CN)NS(=O)(=O)c1ccc(-c2ccc3nccn3c2)c(-c2nn[nH]n2)c1S(N)(=O)=O [Example 406]	172	592	164	1.00	1.563	1.563	3.125	0.3906	0.7813	–
